Assay results as given in US20260212886A1, “MAGNETIC RECORDING MEDIUM AND CARTRIDGE” (Sony Group Corporation, priority 2023, published 2026).

Experiment: Acid dissociation constant (pKa) by potentiometric titration (JIS K 0070:1992)
Text: The acid dissociation constant (pKa) is a parameter indicating the degree of dissociation of an acid. When the ionization constant of an acid is Ka, the acid dissociation constant is defined by pKa=−log10 Ka.

## O=C(O)c1ccc(O)cc1 [4-hydroxybenzoic acid]
  pKa: ≤ 5

## O=C(O)CC(O)(CC(=O)O)C(=O)O [Citric acid, citric acid]
  pKa: ≤ 5

## O=C(O)c1cccc(C(=O)O)c1 [Isophthalic acid, isophthalic acid]
  pKa: ≤ 5

## O=P(O)(O)c1ccccc1 [Phenylphosphonic acid]
  pKa: ≤ 5
